The results in this text go back to US20240360134A1, “PYRAZOLOPYRIMIDINES AND THEIR USES AS PDGFR INHIBITORS” (priority 2021, published 2024).

Assay [1] deals with Tb-labeled inactive PDGFRβ (Homo sapiens (Human), UniProt P09619). In words: biochemical. It is filed as binding.
Assay [2] addresses His6-TEV-PDGFRβ (557-1016) (Homo sapiens (Human), UniProt P09619). Nature of the assay: PDGFRβ HTRF Assay. It is filed as biochemical.
The target of the next assay is VEGFR2, unphosphorylated (Homo sapiens (Human), UniProt P35968). Nature of the assay: VEGFR ADP GLO assay. Type of assay: biochemical. Conditions: 5 nM VEGFR2, 1.2 mM ATP, 1 mg/mL Srctide, 180 min. The method in brief: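 Unphosphorylated kinase (10 nM 2× solution) pre-incubated 30 min at RT with compounds (11-point, 3-fold, top 10 µM), then reacted 180 min with srctide and ATP (2×: 2 mg/mL, 2.4 mM) in HEPES pH 7.5 buffer. ADP read by luminescence. IC50 from 4-parameter fit, normalized to DMSO and 1 µM TAK-593.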
VEGFR2, unphosphorylated, sequence (P35968 whole entry, looked up): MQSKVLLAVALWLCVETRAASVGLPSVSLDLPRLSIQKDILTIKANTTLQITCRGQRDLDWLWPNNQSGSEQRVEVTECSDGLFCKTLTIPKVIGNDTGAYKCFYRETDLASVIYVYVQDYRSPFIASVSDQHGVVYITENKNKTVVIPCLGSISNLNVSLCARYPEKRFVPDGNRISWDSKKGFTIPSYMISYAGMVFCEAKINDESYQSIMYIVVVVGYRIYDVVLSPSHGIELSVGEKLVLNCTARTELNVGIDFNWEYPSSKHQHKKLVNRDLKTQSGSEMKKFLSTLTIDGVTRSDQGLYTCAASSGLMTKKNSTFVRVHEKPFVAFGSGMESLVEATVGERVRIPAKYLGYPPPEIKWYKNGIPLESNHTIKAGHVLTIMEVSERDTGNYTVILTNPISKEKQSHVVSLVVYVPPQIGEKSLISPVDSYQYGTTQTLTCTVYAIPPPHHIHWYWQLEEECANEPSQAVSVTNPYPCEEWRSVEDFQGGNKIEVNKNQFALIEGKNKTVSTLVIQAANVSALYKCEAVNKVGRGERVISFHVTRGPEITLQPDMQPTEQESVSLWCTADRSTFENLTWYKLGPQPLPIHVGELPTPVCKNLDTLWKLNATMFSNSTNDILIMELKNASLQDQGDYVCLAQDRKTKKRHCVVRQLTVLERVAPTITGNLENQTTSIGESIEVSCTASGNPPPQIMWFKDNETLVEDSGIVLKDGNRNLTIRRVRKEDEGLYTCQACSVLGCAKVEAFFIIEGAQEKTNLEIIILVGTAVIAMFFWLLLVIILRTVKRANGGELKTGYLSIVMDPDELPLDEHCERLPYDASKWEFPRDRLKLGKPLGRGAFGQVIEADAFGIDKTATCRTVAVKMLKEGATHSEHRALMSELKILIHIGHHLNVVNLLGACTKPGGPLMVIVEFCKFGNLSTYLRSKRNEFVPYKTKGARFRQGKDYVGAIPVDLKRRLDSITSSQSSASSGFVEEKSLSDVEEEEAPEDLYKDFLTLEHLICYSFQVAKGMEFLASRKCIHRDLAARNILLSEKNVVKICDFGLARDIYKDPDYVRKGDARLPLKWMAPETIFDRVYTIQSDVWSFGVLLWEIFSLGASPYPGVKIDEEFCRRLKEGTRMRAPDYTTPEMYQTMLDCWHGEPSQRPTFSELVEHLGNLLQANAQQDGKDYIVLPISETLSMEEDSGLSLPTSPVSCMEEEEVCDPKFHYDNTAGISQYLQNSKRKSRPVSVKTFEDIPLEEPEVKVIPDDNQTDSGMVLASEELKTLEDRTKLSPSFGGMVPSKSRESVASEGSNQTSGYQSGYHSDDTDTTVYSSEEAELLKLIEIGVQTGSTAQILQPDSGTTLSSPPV
For orientation: ADP-Glo first removes unused ATP, then detects ADP through luciferase.

The target in another assay is PDGFRβ (Rattus norvegicus (Rat), UniProt Q05030). In words: PDGFRβ Cellular Assay (PDGFRb P-Y751 HTRF, PDGF-BB stimulated A10 cells). It is filed as cell-based. The method in brief: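 Rat A10 cells plated overnight were treated with compound for 3 h, stimulated with rat PDGF-BB (working stock 100 ng/mL in 10% FBS medium) for 10 min, then lysed.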
PDGFRβ, sequence (Q05030 whole entry, looked up): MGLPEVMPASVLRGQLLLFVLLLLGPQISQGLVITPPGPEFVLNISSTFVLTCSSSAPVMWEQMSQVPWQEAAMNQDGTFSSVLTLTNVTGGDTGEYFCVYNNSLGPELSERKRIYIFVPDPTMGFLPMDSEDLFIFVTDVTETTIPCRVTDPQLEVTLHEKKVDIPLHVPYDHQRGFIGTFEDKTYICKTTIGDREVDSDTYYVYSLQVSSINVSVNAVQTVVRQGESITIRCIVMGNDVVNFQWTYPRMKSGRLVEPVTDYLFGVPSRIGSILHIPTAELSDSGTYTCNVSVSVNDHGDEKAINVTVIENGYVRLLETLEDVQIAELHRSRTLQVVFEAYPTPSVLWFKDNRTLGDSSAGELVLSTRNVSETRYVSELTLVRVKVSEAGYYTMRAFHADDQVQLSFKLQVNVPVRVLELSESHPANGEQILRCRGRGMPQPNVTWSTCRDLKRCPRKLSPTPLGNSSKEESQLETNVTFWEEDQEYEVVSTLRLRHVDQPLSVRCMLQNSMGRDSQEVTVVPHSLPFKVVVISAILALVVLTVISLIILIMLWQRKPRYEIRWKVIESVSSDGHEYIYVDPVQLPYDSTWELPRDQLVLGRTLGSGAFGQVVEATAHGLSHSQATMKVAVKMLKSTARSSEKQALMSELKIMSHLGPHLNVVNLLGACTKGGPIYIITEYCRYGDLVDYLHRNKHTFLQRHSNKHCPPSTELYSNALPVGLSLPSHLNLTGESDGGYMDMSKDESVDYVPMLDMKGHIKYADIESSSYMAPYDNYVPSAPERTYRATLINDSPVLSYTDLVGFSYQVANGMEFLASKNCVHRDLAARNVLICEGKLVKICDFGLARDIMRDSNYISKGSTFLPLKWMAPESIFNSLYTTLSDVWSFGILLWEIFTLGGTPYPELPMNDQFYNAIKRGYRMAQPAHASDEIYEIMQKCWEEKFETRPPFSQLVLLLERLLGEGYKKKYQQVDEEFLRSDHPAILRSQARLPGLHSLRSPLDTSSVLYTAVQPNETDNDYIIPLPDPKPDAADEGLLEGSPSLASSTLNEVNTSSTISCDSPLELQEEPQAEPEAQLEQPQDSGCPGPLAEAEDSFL
A general note: TR-FRET usually uses a lanthanide donor and a delayed reading to cut background.

Setting [3] is: 800 μM ATP, 0.5 μM TK-substrate biotin peptide, 30 min pre-incubation, 3 hours reaction, read-out: PDGFR HTRF IC50.
Setting [4] is: A10 cells, 3 hours compound, 15 ng/mL PDGFbb for 10 minutes, read-out: PDGFR Cellular IC50.

Read-outs that look alike come from different tables or passages of the source.

Tb-labeled inactive PDGFRβ, sequence (P09619 whole entry, looked up): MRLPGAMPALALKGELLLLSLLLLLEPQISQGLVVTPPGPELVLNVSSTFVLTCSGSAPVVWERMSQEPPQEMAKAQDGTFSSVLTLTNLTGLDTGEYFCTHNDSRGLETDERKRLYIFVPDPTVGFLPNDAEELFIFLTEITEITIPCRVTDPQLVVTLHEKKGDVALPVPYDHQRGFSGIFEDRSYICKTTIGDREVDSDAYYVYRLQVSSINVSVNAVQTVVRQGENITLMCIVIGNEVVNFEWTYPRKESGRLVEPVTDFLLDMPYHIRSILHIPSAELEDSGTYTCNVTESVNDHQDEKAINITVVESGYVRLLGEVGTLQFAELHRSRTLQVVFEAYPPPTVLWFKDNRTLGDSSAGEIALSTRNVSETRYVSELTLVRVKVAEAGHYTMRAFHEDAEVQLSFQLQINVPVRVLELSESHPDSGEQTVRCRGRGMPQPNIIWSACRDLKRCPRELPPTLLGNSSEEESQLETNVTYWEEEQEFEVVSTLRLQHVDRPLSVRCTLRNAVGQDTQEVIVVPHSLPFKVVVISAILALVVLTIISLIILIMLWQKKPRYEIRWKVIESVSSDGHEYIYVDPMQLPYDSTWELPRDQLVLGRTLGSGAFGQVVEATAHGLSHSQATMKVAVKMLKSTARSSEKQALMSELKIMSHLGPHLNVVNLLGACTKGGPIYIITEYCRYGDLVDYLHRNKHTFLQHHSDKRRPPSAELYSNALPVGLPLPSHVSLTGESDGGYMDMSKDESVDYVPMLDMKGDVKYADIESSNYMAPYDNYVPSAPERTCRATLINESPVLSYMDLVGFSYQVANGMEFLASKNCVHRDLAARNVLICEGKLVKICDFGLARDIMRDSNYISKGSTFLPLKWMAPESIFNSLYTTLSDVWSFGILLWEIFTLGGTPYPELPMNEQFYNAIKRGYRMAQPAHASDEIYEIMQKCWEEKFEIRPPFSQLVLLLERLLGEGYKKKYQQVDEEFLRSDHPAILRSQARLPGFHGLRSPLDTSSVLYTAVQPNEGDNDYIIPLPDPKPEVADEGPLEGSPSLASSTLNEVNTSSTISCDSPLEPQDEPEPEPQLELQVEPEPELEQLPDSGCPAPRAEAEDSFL
His6-TEV-PDGFRβ (557-1016), sequence (P09619 whole entry, looked up): as above

A word on the IC50: it is the concentration at which inhibition is half-maximal. Turning to `Cc1ncc(NC(=O)CN2CCC[C@@H]2C)cc1Nc1nn(C)c2nc(Nc3cnn(C4COC4)c3)ncc12` [Example 144, (S)—N-(6-methyl-5-((1-methyl-6-((1-(oxetan-3-yl)-1H-pyrazol-4-yl)amino)-1H-pyrazolo[3,4-d]pyrimidin-3-yl)amino)pyridin-3-yl)-2-(2-methylpyrrolidin-1-yl)acetamide], the IC50 was 2.8 nM in assay [1] (read-out: PDGFR Lantha IC50); 0.35 nM in assay [2] (setting [3]); above 7500 nM against VEGFR2, unphosphorylated; 5.1 nM on PDGFRβ (setting [4]).

Take `Cc1ncc(C(=O)NCCN2CCC(C)(C)C2)cc1Nc1nn(C)c2nc(Nc3cnn(C)c3)ncc12` [Example 86, N-(2-(3,3-dimethylpyrrolidin-1-yl)ethyl)-6-methyl-5-((1-methyl-6-((1-methyl-1H-pyrazol-4-yl)amino)-1H-pyrazolo[3,4-d]pyrimidin-3-yl)amino)nicotinamide]: the 50% inhibitory concentration (IC50) is 2.2 nM in assay [1] (read-out: PDGFR Lantha IC50); 0.33 nM in assay [2] (setting [3]); above 7500 nM on VEGFR2, unphosphorylated; 18.2 nM on PDGFRβ (setting [4]).

Regarding `COCCn1cc(Nc2ncc3c(Nc4cc(NC(=O)CN5CCC(C)(C)C5)cnc4C)nn(C)c3n2)cn1` [Example 129, 2-(3,3-dimethylpyrrolidin-1-yl)-N-(5-((6-((1-(2-methoxyethyl)-1H-pyrazol-4-yl)amino)-1-methyl-1H-pyrazolo[3,4-d]pyrimidin-3-yl)amino)-6-methylpyridin-3-yl)acetamide], the half-maximal inhibitory concentration (IC50) in assay [1] (read-out: PDGFR Lantha IC50) is 1.3 nM; in assay [2] (setting [3]), 0.27 nM; on VEGFR2, unphosphorylated it was 1420 nM; on PDGFRβ (setting [4]), 2.4 nM.

For `Cc1ncc(NC(=O)CN2CCCC2)cc1Nc1nn(C)c2nc(Nc3cnn(C)c3)ncc12` [Example 138, N-(6-methyl-5-((1-methyl-6-((1-methyl-1H-pyrazol-4-yl)amino)-1H-pyrazolo[3,4-d]pyrimidin-3-yl)amino)pyridin-3-yl)-2-(pyrrolidin-1-yl)acetamide], the IC50 in assay [1] (read-out: PDGFR Lantha IC50) is 2.1 nM; in assay [2] (setting [3]) it was 0.24 nM; on VEGFR2, unphosphorylated, above 7500 nM; on PDGFRβ (setting [4]), 3.2 nM.

As for `COCCn1cc(Nc2ncc3c(Nc4cc(NC(=O)CN5CCC[C@@H]5C)cnc4C)nn(C)c3n2)cn1` [Example 128, (S)—N-(5-((6-((1-(2-methoxyethyl)-1H-pyrazol-4-yl)amino)-1-methyl-1H-pyrazolo[3,4-d]pyrimidin-3-yl)amino)-6-methylpyridin-3-yl)-2-(2-methylpyrrolidin-1-yl)acetamide], the concentration for half-maximal inhibition (IC50) in assay [1] (read-out: PDGFR Lantha IC50) is 3.6 nM; in assay [2] (setting [3]), 0.47 nM; against VEGFR2, unphosphorylated, above 7500 nM; at PDGFRβ (setting [4]), 4.5 nM.

For `C[C@H]1CCCN1CCNC(=O)c1ccc(F)c(Nc2nn(C)c3nc(Nc4cnn(C)c4)ncc23)c1` [Example 119, (S)-4-fluoro-3-((1-methyl-6-((1-methyl-1H-pyrazol-4-yl)amino)-1H-pyrazolo[3,4-d]pyrimidin-3-yl)amino)-N-(2-(2-methylpyrrolidin-1-yl)ethyl)benzamide], the IC50 was found to be 1.4 nM in assay [1] (read-out: PDGFR Lantha IC50); 0.13 nM in assay [2] (setting [3]); 6600 nM on VEGFR2, unphosphorylated; 5.8 nM at PDGFRβ (setting [4]).

Take `Cc1ncc(C(=O)NCCN2CCCC2(C)C)cc1Nc1nn(C)c2nc(Nc3cccc(C(C)(C)C(=O)O)c3)ncc12` [Example 47, 2-(3-((3-((5-((2-(2,2-dimethylpyrrolidin-1-yl)ethyl)carbamoyl)-2-methylpyridin-3-yl)amino)-1-methyl-1H-pyrazolo[3,4-d]pyrimidin-6-yl)amino)phenyl)-2-methylpropanoic acid]: the half-inhibitory concentration (IC50) in assay [1] (read-out: PDGFR Lantha IC50) was 14.6 nM; in assay [2] (setting [3]) it was 2.58 nM; against VEGFR2, unphosphorylated, 2420 nM; at PDGFRβ (setting [4]) it was above 3000 nM.

Regarding `Cc1ncc(C(=O)NCCN2CCCC2(C)C)cc1Nc1nn(C)c2nc(Nc3cccc(C4(C(=O)O)CC4)c3)ncc12` [Example 38, 1-(3-((3-((5-((2-(2,2-dimethylpyrrolidin-1-yl)ethyl)carbamoyl)-2-methylpyridin-3-yl)amino)-1-methyl-1H-pyrazolo[3,4-d]pyrimidin-6-yl)amino)phenyl)cyclopropanecarboxylic acid], the IC50 in assay [1] (read-out: PDGFR Lantha IC50) is 15.3 nM; in assay [2] (setting [3]), 1.59 nM; at VEGFR2, unphosphorylated it was 715 nM; at PDGFRβ (setting [4]), above 3000 nM.

Regarding `Cc1ncc(C(=O)NCCN2CCC3(CCC3)CC2)cc1Nc1nn(C)c2nc(Nc3cncnc3)ncc12` [Example 7, N-(2-(7-azaspiro[3.5]nonan-7-yl)ethyl)-6-methyl-5-((1-methyl-6-(pyrimidin-5-ylamino)-1H-pyrazolo[3,4-d]pyrimidin-3-yl)amino)nicotinamide], the IC50 in assay [1] (read-out: PDGFR Lantha IC50) is 6.7 nM; in assay [2] (setting [3]), 0.48 nM; on VEGFR2, unphosphorylated, above 7500 nM; at PDGFRβ (setting [4]) it was 32.7 nM.

Consider `Cc1cc(C(=O)NCCN2CC3COCC3C2)sc1Nc1nn(C)c2nc(Nc3cnn(C)c3)ncc12` (stereo not drawn) [Example 61, 4-methyl-5-((1-methyl-6-((1-methyl-1H-pyrazol-4-yl)amino) 1H-pyrazolo[3,4-d]pyrimidin-3-yl)amino)-N-(2-(tetrahydro-1H-furo[3,4-c]pyrrol-5(3H)-yl)ethyl)thiophene-2-carboxamide], for which the IC50 was determined as 10.2 nM in assay [1] (read-out: PDGFR Lantha IC50); 0.61 nM in assay [2] (setting [3]); 3860 nM at VEGFR2, unphosphorylated; 86.8 nM on PDGFRβ (setting [4]).

In the case of `Cc1ncc(C(=O)NCCN2CCCC2(C)C)cc1Nc1nn(C)c2nc(Nc3cncc(C(N)=O)c3)ncc12` [Example 29, 5-((6-((5-carbamoylpyridin-3-yl)amino)-1-methyl-1H-pyrazolo[3,4-d]pyrimidin-3-yl)amino)-N-(2-(2,2-dimethylpyrrolidin-1-yl)ethyl)-6-methylnicotinamide], the 50% inhibitory concentration (IC50) in assay [1] (read-out: PDGFR Lantha IC50) was 6.6 nM; in assay [2] (setting [3]), 0.8 nM; against VEGFR2, unphosphorylated, above 10000 nM; at PDGFRβ (setting [4]) it was 5330 nM.

For the molecule `Cc1ncc(C(=O)NCCC2CCCCC2)cc1Nc1nn(C)c2nc(Nc3ccc(CC(=O)O)nc3)ncc12` [Example 106, 2-(5-((3-((5-((2-cyclohexylethyl)carbamoyl)-2-methylpyridin-3-yl)amino)-1-methyl-1H-pyrazolo[3,4-d]pyrimidin-6-yl)amino)pyridin-2-yl)acetic acid], the half-inhibitory concentration (IC50) in assay [1] was found to be 3.6 nM; in assay [2], 0.76 nM; at VEGFR2, unphosphorylated, 915 nM; against PDGFRβ, 12.6 nM.

On to `Cc1ncc(C(=O)NCCN2C[C@H](C)O[C@@H](C)C2)cc1Nc1nn(C)c2nc(Nc3cncnc3)ncc12` [Example 114, N-(2-((2S,6S)-2,6-dimethylmorpholino)ethyl)-6-methyl-5-((1-methyl-6-(pyrimidin-5-ylamino)-1H-pyrazolo[3,4-d]pyrimidin-3-yl)amino)nicotinamide], for which the IC50 was 9.1 nM in assay [1] (read-out: PDGFR Lantha IC50); 0.88 nM in assay [2] (setting [3]); above 7500 nM against VEGFR2, unphosphorylated; 72.9 nM at PDGFRβ (setting [4]).

For `COCCCN(CCNC(=O)c1cnc(C)c(Nc2nn(C)c3nc(Nc4cnn(C)c4)ncc23)c1)C1CCC1` [Example 93, N-(2-(cyclobutyl(3-methoxypropyl)amino)ethyl)-6-methyl-5-((1-methyl-6-((1-methyl-1H-pyrazol-4-yl)amino)-1H-pyrazolo[3,4-d]pyrimidin-3-yl)amino)nicotinamide], the IC50 is 3.8 nM in assay [1] (read-out: PDGFR Lantha IC50); 0.44 nM in assay [2] (setting [3]); above 7500 nM at VEGFR2, unphosphorylated; 10.6 nM at PDGFRβ (setting [4]).

Consider `Cc1ncc(C(=O)NCCN(CCCO)C2CCCC2)cc1Nc1nn(C)c2nc(Nc3cnn(C)c3)ncc12` [Example 96, N-(2-(cyclopentyl(3-hydroxypropyl)amino)ethyl)-6-methyl-5-((1-methyl-6-((1-methyl-1H-pyrazol-4-yl)amino)-1H-pyrazolo[3,4-d]pyrimidin-3-yl)amino)nicotinamide], for which the concentration for half-maximal inhibition (IC50) in assay [1] (read-out: PDGFR Lantha IC50) is 2.8 nM; in assay [2] (setting [3]), 0.43 nM; against VEGFR2, unphosphorylated, above 7500 nM; at PDGFRβ (setting [4]), 139 nM.

Regarding `Cc1ncc(C(=O)NCCN2CCCC[C@H]2C)cc1Nc1nn(C)c2nc(Nc3cncnc3)ncc12` [Example 11, (R)-6-methyl-5-((1-methyl-6-(pyrimidin-5-ylamino)-1H-pyrazolo[3,4-d]pyrimidin-3-yl)amino)-N-(2-(2-methylpiperidin-1-yl)ethyl)nicotinamide], the IC50 in assay [1] (read-out: PDGFR Lantha IC50) is 5.8 nM; in assay [2] (setting [3]), 0.68 nM; at VEGFR2, unphosphorylated, around 6630 nM; on PDGFRβ (setting [4]), 68.8 nM.

Take `Cc1ncc(C(=O)NCCC2CCCCC2)cc1Nc1nn(C)c2nc(Nc3ccnc(N4CCN(CCO)CC4)c3)ncc12` [Example 110, N-(2-cyclohexylethyl)-5-((6-((2-(4-(2-hydroxyethyl)piperazin-1-yl)pyridin-4-yl)amino)-1-methyl-1H-pyrazolo[3,4-d]pyrimidin-3-yl)amino)-6-methylnicotinamide]: the IC50 was 3.9 nM in assay [1] (read-out: PDGFR Lantha IC50); 0.77 nM in assay [2] (setting [3]); 143 nM against VEGFR2, unphosphorylated; 108 nM on PDGFRβ (setting [4]).

Regarding `Cc1nn(C)cc1Nc1ncc2c(Nc3cc(C(=O)NCCN4CCC(C)(C)C4)cnc3C)nn(C)c2n1` [Example 159, 5-((6-((1,3-dimethyl-1H-pyrazol-4-yl)amino)-1-methyl-1H-pyrazolo[3,4-d]pyrimidin-3-yl)amino)-N-(2-(3,3-dimethylpyrrolidin-1-yl)ethyl)-6-methylnicotinamide], the IC50 in assay [1] (read-out: PDGFR Lantha IC50) is 13.3 nM; in assay [2] (setting [3]), 1.5 nM; at VEGFR2, unphosphorylated, above 7500 nM; on PDGFRβ (setting [4]), 60.7 nM.
